From US20240076297A1, “ADENOSINE A2A AND A2B RECEPTOR DUAL ANTAGONISTS FOR IMMUNO-ONCOLOGY” (Merck Sharp & Dohme LLC, priority 2020, published 2024)

Assays:
[1] = biological target: human A2A adenosine receptor (Homo sapiens (Human), UniProt P29274); assay: A2A binding affinity using radioligand binding, Method (A); conditions: Method (A): filtration radioligand binding, [3H] SCH58261, membranes expressing human A2A
Outline: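 Filtration binding used HEK293 or CHO membranes (5 μg/mL) preincubated with compound for 15–30 min at RT. [3H]SCH58261 (4 nM working solution) was added in Tris pH 7.4/10 mM MgCl2/0.005% Tween20 for 60 min at RT, with 1 μM ZM241385 defining nonspecific binding. Scintillation counts gave IC50 via 4-parameter logistic fit.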

[2] = biological target: human A2B adenosine receptor (Homo sapiens (Human), UniProt P29275); assay: A2B binding affinity, radioligand filtration binding assay; conditions: HEK293 membranes expressing human A2B, tritiated proprietary antagonist
Sequence of human A2B adenosine receptor (P29275 whole entry): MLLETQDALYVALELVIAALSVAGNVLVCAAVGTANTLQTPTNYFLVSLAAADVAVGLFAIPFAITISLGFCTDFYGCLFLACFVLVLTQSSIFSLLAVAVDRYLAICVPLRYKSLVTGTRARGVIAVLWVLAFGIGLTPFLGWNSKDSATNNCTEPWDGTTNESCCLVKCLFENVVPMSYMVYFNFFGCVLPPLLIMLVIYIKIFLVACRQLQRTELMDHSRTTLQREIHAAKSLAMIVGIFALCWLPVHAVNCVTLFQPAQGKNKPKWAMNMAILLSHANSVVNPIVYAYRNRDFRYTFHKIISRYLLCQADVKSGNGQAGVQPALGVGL
Source text: Method (A) describes the procedure used to measure A2A binding affinity using radioligand binding. Method (B) describes the procedure used to measure A2A binding affinity using SPA technology. The method used to measure A2B binding affinity is also described below. The method used to determine the A2A IC50 value reported for each compound in the table is indicated next to the reported value. The A2B IC50 value measured using the A2B binding affinity assay is shown in the table next to the compound under the corresponding A2A value.
Measurement of A2B Binding Affinity
The reported affinity of the compounds of the invention for the human A2B adenosine receptor was determined experimentally using a radioligand filtration binding assay. This assay measures the amount of binding of a tritiated proprietary A2B receptor antagonist, in the presence and absence of a compound of the invention, to membranes made from HEK293 cells recombinantly expressing the human A2B adenosine receptor (Perkin Elmer, Cat. No. ES-013-C).
148 μL (135 μg/mL) membranes and 2 μL test compounds were transferred to individual wells of a 96-well polypropylene assay plate and incubated for 15 to 30 min at room temperature with agitation. Tritiated radioligand was diluted to a concentration of 14 nM in assay buffer (phosphate buffered saline without Magnesium and Calcium, pH 7.4; GE Healthcare Life Sciences, Cat. No. SH30256.01) and then 50 μL of the solution were transferred to each well of the assay plate. To define total and non-specific binding, wells containing 1% DMSO and 20 μM N-ethylcarboxamidoadenosine (Tocris Bioscience, Cat. No. 1691) respectively, were also included. The wells of the assay plate were incubated at room temperature for 60 min with agitation, then filtered using a FilterMate Harvester® (Perkin Elmer) or similar equipment through a UniFilter-96@ PEI coated plate (Perkin Elmer Cat. No. 6005274 or 6005277). Filtering was achieved by aspirating the contents of the assay plate for 5 sec, then washing and aspirating the contents three times with ice-cooled wash buffer (assay buffer supplemented with 0.0025% Brij58) and allowing the vacuum manifold to dry the plate for 30 sec. The filter plate was incubated for at least 1 h at 55° C. and allowed to dry. The bottom of the filter plate was then sealed with backing tape. 40 μL Ultima Gold™ (Perkin Elmer, Cat. No. 6013329) was added to each well of the filter plate and the top of the plate was sealed with TopSeal-A PLUS® clear plate seal (Perkin Elmer, Cat. No. 6050185). The plates were then incubated for at least 20 min, and then the amount of radioactivity remaining in each well was determined using a TopCount® (Perkin Elmer) scintillation counter. After normalization to total and non-specific binding, the percent effect at each compound concentration was calculated. The plot of percent effect versus the log of compound concentration was analyzed electronically using a 4-parameter logistic fit based on the Levenberg-Marquardt algorithm to generate IC50 values.

Sequence of human A2A adenosine receptor (P29274 whole entry): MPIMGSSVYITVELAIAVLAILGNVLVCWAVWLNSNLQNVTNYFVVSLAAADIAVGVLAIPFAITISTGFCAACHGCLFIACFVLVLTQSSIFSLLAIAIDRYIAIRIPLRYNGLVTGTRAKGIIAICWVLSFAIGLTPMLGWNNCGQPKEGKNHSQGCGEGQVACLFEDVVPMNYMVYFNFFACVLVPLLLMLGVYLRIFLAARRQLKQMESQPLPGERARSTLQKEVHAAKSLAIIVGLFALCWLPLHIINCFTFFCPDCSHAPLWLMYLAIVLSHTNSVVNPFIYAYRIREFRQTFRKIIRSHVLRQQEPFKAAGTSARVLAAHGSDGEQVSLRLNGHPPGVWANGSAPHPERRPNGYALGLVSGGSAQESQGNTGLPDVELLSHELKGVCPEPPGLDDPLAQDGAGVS

Structure (SMILES)	IC50 [1] [nM]	IC50 ([2]; value given with marker (A)) [nM]	IC50 ([2]; value given with marker (B)) [nM]
COc1cc2nc(N)n3nc(CCS(=O)(=O)c4ccccc4)nc3c2cc1F [Example 6.2, 9-fluoro-8-methoxy-2-(2-(phenylsulfonyl)ethyl)-[1,2,4]triazolo[1,5-c]quinazolin-5-amine]	4.8	455	–
COc1cccc2c1nc(N)n1nc(CCS(C)(=O)=O)nc21 [Example 6.3, 7-methoxy-2-(2-(methylsulfonyl)ethyl)-[1,2,4]-triazolo[1,5-c]quinazolin-5-amine]	8.2	535	–
COc1cc2nc(N)n3nc(CCS(C)(=O)=O)nc3c2cc1F [Example 6.4, 9-fluoro-8-methoxy-2-(2-(methylsulfonyl)ethyl)-[1,2,4]triazolo[1,5-c]quinazolin-5-amine]	222	1900	–
COc1cc2nc(N)n3nc(CCS(N)(=O)=O)nc3c2cc1F [Example 6.5, 2-(5-amino-9-fluoro-8-methoxy-[1,2,4]triazolo-[1,5-c]quinazolin-2-yl)ethane-1-sulfonamide]	107	113	–
COc1cccc2c1nc(N)n1nc(CS(=O)(=O)c3ccccc3)nc21 [Example 6.6, 7-methoxy-2-((phenylsulfonyl)methyl)-[1,2,4]triazolo-[1,5-c]quinazolin-5-amine]	4.2	–	3780
COc1cccc2c1nc(N)n1nc(CCS(=O)(=O)c3ccc(F)cc3)nc21 [Example 13.4, 2-(2-((4-fluorophenyl)sulfonyl)ethyl)-7-methoxy-[1,2,4]triazolo[1,5-c]quinazolin-5-amine]	0.3	973	–
COc1ccc2c(c1)nc(N)n1nc(CCS(=O)(=O)c3ccc(F)cc3)nc21 [Example 13.7, 2-(2-((4-fluorophenyl)sulfonyl)ethyl)-8-methoxy-[1,2,4]triazolo[1,5-c]quinazolin-5-amine]	170	607	–
COc1ccc2c(c1)nc(N)n1nc(CCS(=O)(=O)CC(C)C)nc21 [Example 13.8, 2-(2-(isobutylsulfonyl)ethyl)-8-methoxy-[1,2,4]triazolo-[1,5-c]quinazolin-5-amine]	76.9	894	–
CCS(=O)(=O)CCc1nc2c3ccc(OC)cc3nc(N)n2n1 [Example 13.9, 2-(2-(ethylsulfonyl)ethyl)-8-methoxy-[1,2,4]triazolo-[1,5-c]quinazolin-5-amine]	246	1060	–
COc1cc(F)cc2c1nc(N)n1nc(CCS(=O)(=O)C3CC3)nc21 [Example 13.10, 2-(2-(cyclopropylsulfonyl)ethyl)-9-fluoro-7-methoxy-[1,2,4]triazolo[1,5-c]quinazolin-5-amine]	0.8	9.8	–
COc1cc(F)cc2c1nc(N)n1nc(CCS(=O)(=O)CC(C)C)nc21 [Example 13.11, 9-fluoro-2-(2-(isobutylsulfonyl)ethyl)-7-methoxy-[1,2,4]triazolo[1,5-c]quinazolin-5-amine]	28.8	666	–
CCS(=O)(=O)CCc1nc2c3cc(F)c(OC)cc3nc(N)n2n1 [Example 13.12, 2-(2-(ethylsulfonyl)ethyl)-9-fluoro-8-methoxy-[1,2,4]triazolo[1,5-c]quinazolin-5-amine]	165	1720	–
COc1cc2nc(N)n3nc(CCS(=O)(=O)c4ccc(F)cc4)nc3c2cc1F [Example 13.13, 9-fluoro-2-(2-((4-fluorophenyl)sulfonyl)ethyl)-8-methoxy-[1,2,4]triazolo[1,5-c]quinazolin-5-amine]	57.7	1040	–
COc1cc2nc(N)n3nc(CCS(=O)(=O)C4CC4)nc3c2cc1F [Example 13.14, 2-(2-(cyclopropylsulfonyl)ethyl)-9-fluoro-8-methoxy-[1,2,4]triazolo[1,5-c]quinazolin-5-amine]	9.1	197	–
CCS(=O)(=O)CCc1nc2c3cc(F)cc(OC)c3nc(N)n2n1 [Example 13.15, 2-(2-(ethylsulfonyl)ethyl)-9-fluoro-7-methoxy-[1,2,4]triazolo[1,5-c]quinazolin-5-amine]	9.8	220	–
COc1cc2nc(N)n3nc(CCS(=O)(=O)CC(C)C)nc3c2cc1F [Example 13.16, 9-fluoro-2-(2-(isobutylsulfonyl)ethyl)-8-methoxy-[1,2,4]triazolo[1,5-c]quinazolin-5-amine]	107	1080	–
COc1cccc2c1nc(N)n1nc(CCS(C)(=O)=O)nc21 [Example 13.17, 7-methoxy-2-(2-(methylsulfonyl)ethyl)-[1,2,4]triazolo[1,5-c]quinazolin-5-amine]	28.1	410	–
COc1cc(F)cc2c1nc(N)n1nc(CCCS(=O)(=O)C3CC3)nc21 [Example 13.18, 2-(3-(cyclopropylsulfonyl)propyl)-9-fluoro-7-methoxy-[1,2,4]triazolo[1,5-c]quinazolin-5-amine]	1.1	112	–

More lines, now with the values ahead:

IC50 [1] [nM]	IC50 ([2]; value given with marker (A)) [nM]	IC50 ([2]; value given with marker (B)) [nM]	Structure (SMILES)
13.9	–	307	CC[C@@H](O)Cc1nc2c3cccc(OC)c3nc(N)n2n1 [Example 17.2, (R)-1-(5-amino-7-methoxy-[1,2,4]triazolo[1,5-c]quinazolin-2-yl)butan-2-ol]
264	–	2990	COc1cccc2c1nc(N)n1nc([C@@H](C)CO)nc21 [Example 17.3, (R)-2-(5-amino-7-methoxy-[1,2,4]triazolo[1,5-c]quinazolin-2-yl)propan-1-ol]
145	–	1070	COc1cccc2c1nc(N)n1nc([C@H](C)CO)nc21 [Example 17.4, (S)-2-(5-amino-7-methoxy-[1,2,4]triazolo[1,5-c]quinazolin-2-yl)propan-1-ol]
30.8	–	128	COc1cccc2c1nc(N)n1nc(CC(C)(C)O)nc21 [Example 18.2, 1-(5-amino-7-methoxy-[1,2,4]triazolo[1,5-c]quinazolin-2-yl)-2-methylpropan-2-ol]
6.7	–	214	COc1cccc2c1nc(N)n1nc(C[C@H](C)O)nc21 [Example 18.3, (S)-1-(5-amino-7-methoxy-[1,2,4]triazolo[1,5-c]quinazolin-2-yl)propan-2-ol]
15.1	–	209	COc1cccc2c1nc(N)n1nc(C[C@@H](C)O)nc21 [Example 18.4, (R)-1-(5-amino-7-methoxy-[1,2,4]triazolo[1,5-c]quinazolin-2-yl)propan-2-ol]
